The values that follow come from US5523407A, “Quinoline derivatives, their production and use as ACAT inhibitors” (Takeda Chemical Industries, Ltd., priority 1989, dated 1996).

Structures are written as SMILES.

For test [1], the target named is T1, Acyl-CoA: cholesterol acyltransferase (ACAT) (Rattus norvegicus, UniProt Q7TQM4).
T1 construct: from the mucosal microsome fraction of the small intestine; from tissue; host or cells: small intestine mucosal microsomes, male 6-week old Sprague-Dawley rats fasted 20 hours
T1 sequence (Q7TQM4 1-524): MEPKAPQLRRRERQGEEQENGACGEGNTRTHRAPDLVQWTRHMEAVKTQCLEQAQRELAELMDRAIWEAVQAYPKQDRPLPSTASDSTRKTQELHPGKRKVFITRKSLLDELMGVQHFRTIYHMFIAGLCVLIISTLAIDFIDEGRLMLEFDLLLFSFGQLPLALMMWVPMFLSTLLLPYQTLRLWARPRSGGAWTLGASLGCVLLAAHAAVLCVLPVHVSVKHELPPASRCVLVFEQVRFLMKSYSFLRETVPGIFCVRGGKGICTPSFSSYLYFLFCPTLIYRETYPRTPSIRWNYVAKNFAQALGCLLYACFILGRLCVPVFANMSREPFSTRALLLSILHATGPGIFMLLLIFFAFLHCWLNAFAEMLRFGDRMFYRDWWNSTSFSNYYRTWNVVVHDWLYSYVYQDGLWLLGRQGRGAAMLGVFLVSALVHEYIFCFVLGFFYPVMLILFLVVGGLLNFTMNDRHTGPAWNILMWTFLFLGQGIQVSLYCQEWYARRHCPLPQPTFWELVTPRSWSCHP
The test can be described thus: ACAT inhibitory activity (rat small intestine mucosal microsome; labeled cholesterol ester from [1-^14 C] oleoyl-CoA). Type of test: biochemical, Sprague-Dawley rat. The note with it: 10^-6 M test compound; read-out: ACAT Inhibition Rate. On the procedure:
1. Acyl-CoA: cholesterol acyltransferase (ACAT) inhibitory activity
The enzyme ACAT was prepared by the method of Heider et al. described in Journal of Lipid Research, Vol. 24, page 1127 (1982), from the mucosal microsome fraction of the small intestine of male, 6-week old Sprague-Dawley rats which had been fasted for 20 hours.
ACAT activity was calculated by the method of Helgerud et. al. described in Journal of Lipid Research, Vol. 22, page 271 (1981), namely, by measuring the amount of the labeled cholesterol ester produced from [1-^14 C] oleoyl-CoA and endogenous cholesterol.
Inhibition rates (%) of the production of the labeled cholesterol ester wherein 10-^6 M of test compounds were added are shown as an index of ACAT inhibitory activity in Table 1.

Test [2] deals with lipoperoxide production in homogenized brain. Kind of test: Lipoperoxide inhibitory activity (natural oxidation of homogenized rat brain, malonodialdehyde by TBA method). Type of test: biochemical, Sprague-Dawley rat. Particulars: for Lipoperoxide inhibition rate: 10^-5 M test compound; for IC50: read-out: Lipoperoxide Inhibitory Activity, 50% inhibitory concentration (IC50). On the procedure:
2. Lipoperoxide inhibitory activity
From 10-week, old, male Sprague-Dawely rats which were fed CE-2 diet (Nippon Claire) and water, their brains were taken out by the method of Stocks disclosed in Clinical Science Molecular Medicine, Vol. 78, page 215 (1974), to form lipoperoxide by natural oxidation. The compound (I) in an amount of 10-^3 moles was dissolved in ethanol, and the resultant (10 μl) was added to each homogenized brain. On the other hand, ethanol from which the compound (I) was removed was added to a control group of homogenized brain. A malonodialdehyde was measured by the (TBA) method disclosed in Okawa et al., Analysis Biochemistry, Vol. 95, page 351 (1979). The produced lipoperoxide was calculated based on the measured value of malonodialdehyde.

In general, inhibition refers to the share of the control response that was lost under treatment. `CC(=O)Oc1c(C)cc(C(=O)Nc2cnc3c(C)cc(C)cc3c2-c2ccccc2Cl)cc1C` [Example 8, 3-(4-acetoxy-3,5-dimethylbenzamido)-4-(2-chlorophenyl)-6,8-dimethylquinoline]: in test [1], the inhibition at 1 µM turned out to be 62%. Consider `COc1cccc(C=CC(=O)Nc2cnc3c(C)cc(C)cc3c2-c2ccccc2Cl)c1OC` [Example 24, 4-(2-chlorophenyl)-3-(2,3-dimethoxycinnamoylamino)-6,8-di-methylquinoline], for which the inhibition at 1 µM in test [1] was found to be 69.4%. Regarding `COc1cc(C=CC(=O)Nc2cnc3c(C)cc(C)cc3c2-c2ccccc2Cl)cc(OC)c1O` [Example 33, 4-(2-chlorophenyl)-3-(4-hydroxy-3,5-dimethoxycinnamonylamino)-6,8-dimethylquinoline], in test [2], the Lipoperoxide inhibition rate came out at 96.1% and the IC50 amounted to 1300 nM. Also, the inhibition at 1 µM in test [1] was determined as 81.7%. Take `COc1ccc(C=CC(=O)Nc2cnc3c(C)cc(C)cc3c2-c2ccccc2Cl)c(OC)c1OC` [Example 46, 4-(2-chlorophenyl)-6,8-dimethyl-3-(2,3,4-trimethoxycinnamoylamino) quinoline]: in test [1], the inhibition at 1 µM was determined as 72.6%. For `Cc1cc(C)c2ncc(NC(=O)C=Cc3ccc(O)c(O)c3)c(-c3ccccc3Cl)c2c1` [Example 38, 4-(2-chlorophenyl)-3-(3,4-dihydroxycinnamoylamino)-6,8-dimethylquinoline], the inhibition at 1 µM in test [1] came to 78.2%. As for `CC1=C(C(=O)Nc2cnc3c(C)cc(C)cc3c2-c2ccccc2Cl)Sc2cc(F)ccc2N1` [Example 16, 4-(2-chlorophenyl)-3-(7-fluoro-3-methyl-4H-1,4-benzothiazin-2-ylcarbonyl)amino-6,8-dimethylquinoline], in test [2], the Lipoperoxide inhibition rate amounted to 100% and the IC50 was 1200 nM. In addition, in test [1], the inhibition at 1 µM was 72.6%. As for `Cc1cc(C)c2ncc(NC(=O)C=Cc3cccc(O)c3O)c(-c3ccccc3Cl)c2c1` [Example 32, 4-(2-chlorophenyl)-3-(2,3-dihydroxycinnamoylamino)-6,8-dimethylquinoline], in test [2], the Lipoperoxide inhibition rate is 99.7% and the IC50 was found to be 400 nM. In test [1], the inhibition at 1 µM amounted to 66.6%. With `Cc1cc(C)c2ncc(NC(=O)C3(C)Cc4c(C)c(O)c(C)c(C)c4O3)c(-c3ccccc3Cl)c2c1` (stereo not drawn) [Example 14, 4-(2-chlorophenyl)-3-(2,3-dihydro-5-hydroxy-2,4,6,7-tetramethylbenzofuran-2-ylcarbonyl)amino-6,8-dimethylquinoline], in test [2], the Lipoperoxide inhibition rate is listed as 98.4% and the IC50 was 370 nM. In addition, the inhibition at 1 µM in test [1] worked out at 83.1%. Take `COc1ccc(-c2c(NC(=O)c3cc(C(C)(C)C)c(O)c(C(C)(C)C)c3)cnc3ccc(Cl)cc23)cc1OC` [Example 3, 3-(3,5-di-tert-butyl-4-hydroxybenzamido)-6-chloro-4-(3,4-dimethoxyphenyl)quinoline]: the inhibition at 1 µM in test [1] worked out at 83.4%. The same measure, in the same setting: in the case of `CC1=C(C(=O)Nc2cnc3c(C)cc(C)cc3c2-c2ccccc2Cl)Sc2ccccc2N1` [Example 15, 4-(2-chlorophenyl)-6,8-dimethyl-3-(3-methyl-4H-1,4-benzothiazin-2-ylcarbonyl) aminoquinoline] it was 76%. `Cc1cc(C)c2ncc(NC(=O)C=Cc3cc(C)c(O)c(C)c3)c(-c3ccccc3Cl)c2c1` [Example 34, 4-(2-chlorophenyl)-3-(4-hydroxy-3,5-dimethylcinnamoylamino)-6,8-dimethylquinoline]: the Lipoperoxide inhibition rate in test [2] amounted to 62.1%. In addition, the inhibition at 1 µM in test [1] came out at 86.4%. For the compound `Cc1cc(C)c2ncc(NC(=O)Cc3ccc(F)cc3F)c(-c3ccccc3Cl)c2c1` [Example 18, 4-(2-chlorophenyl)-3-(2,4-difluorophenylacetylamino)-6,8-dimethylquinoline], in test [1], the inhibition at 1 µM was 94%. Take `Cc1cc(C)c2ncc(NC(=O)c3cc(C)c(O)c(C)c3C)c(-c3ccccc3Cl)c2c1` [Example 11, 4-(2-chlorophenyl)-3-(4-hydroxy-2,3,5-trimethylbenzamido)-6,8-dimethylquinoline]: the inhibition at 1 µM in test [1] amounted to 94.3%. In the case of `O=C(C=Cc1ccc(O)c(O)c1)Nc1cnc2ccc(Cl)cc2c1-c1ccccc1Cl` [Example 43, 6-chloro-4-(2-chlorophenyl)-3-(3,4-dihydroxycinnamoylamino)quinoline], the inhibition at 1 µM in test [1] turned out to be 97%. The compound `Cc1cc(C)c2ncc(NC(=O)C3(C)CCc4c(C)c(O)c(C)c(C)c4O3)c(-c3ccccc3Cl)c2c1` (stereo not drawn) [Example 12, 4-(2-chlorophenyl)-3-(6-hydroxy-2,5,7,8-tetramethylchroman-2-ylcarbonyl)amino-6,8-dimethylquinoline] displayed a Lipoperoxide inhibition rate in test [2] of 98.5%. Moreover, the inhibition at 1 µM in test [1] was 41.2%. As for `CC(=O)Oc1c(C(C)C)cc(C(=O)Nc2cnc3c(C)cc(C)cc3c2-c2ccccc2Cl)cc1C(C)C` [Example 6, 3-(4-acetoxy-3,5-diisopropylbenzamido)-4-(2-chlorophenyl)-6,8-dimethylquinoline], in test [1], the inhibition at 1 µM turned out to be 79.3%. With `COc1ccc(-c2c(NC(=O)c3cc(C(C)(C)C)c(O)c(C(C)(C)C)c3)cnc3ccc(Cl)cc23)c(OC)c1OC` [Example 4, 3-(3,5-di-tert-butyl-4-hydroxybenzamido)-6-chloro-4-(2,3,4-trimethoxyphenyl) quinoline], the inhibition at 1 µM in test [1] turned out to be 84.8%.

For `COc1ccc(C=CC(=O)Nc2c(-c3ccccc3Cl)c3cc(C)cc(C)c3n(C)c2=O)cc1OC` [Example 36, 4-(2-chlorophenyl)-3-(3,4-dimethoxycinnamoylamino)-1,6,8-trimethyl-2(1H)-quinolone], the inhibition at 1 µM in test [1] stood at 63%. In test [2], `COc1cc(C=CC(=O)Nc2cnc3c(C)cc(C)cc3c2-c2ccccc2Cl)cc(OC)c1OC(C)=O` [Example 27, 3-(4-acetoxy-3,5-dimethoxylcinnamoylamino)-4-(2-chlorophenyl)-6,8-dimethylquinoline] yielded a Lipoperoxide inhibition rate of 90.2%. The inhibition at 1 µM in test [1] amounted to 83.7%. In the case of `COc1ccc(C=CC(=O)Nc2cnc3cc(C)c(C)cc3c2-c2ccccc2Cl)cc1OC` [Example 22, 4-(2-chlorophenyl)-3-(3,4-dimethoxycinnamoylamino)-6,7-di-methylquinoline], the inhibition at 1 µM in test [1] turned out to be 92.6%. Consider `COC(=O)c1ccc(C=CC(=O)Nc2cnc3c(C)cc(C)cc3c2-c2ccccc2Cl)cc1` [Example 23, 4-(2-chlorophenyl)-3-(4-methoxycarbonylcinnamoylamino)-6,8-dimethylquinoline], for which, in test [1], the inhibition at 1 µM turned out to be 65.9%. For `CC(=O)Oc1c(C)c(C)c2c(c1C)CC(C)(C(=O)Nc1cnc3c(C)cc(C)cc3c1-c1ccccc1Cl)O2` (stereo not drawn) [Example 13, 3-(5-acetoxy-2,3-dihydro-2,4,6,7-tetramethylbenzofuran-2-ylcarbonyl)amino-4-(2-chlorophenyl)-6,8-dimethylquinoline], the Lipoperoxide inhibition rate in test [2] came to 71.6%. In addition, the inhibition at 1 µM in test [1] came to 64.7%.

Take `Cc1cc(C)c2ncc(NC(=O)c3cc(C(C)(C)C)c(O)c(C(C)(C)C)c3)c(-c3ccccc3Cl)c2c1` [Example 1, 4-(2-chlorophenyl)-3-(3,5-di-tert-butyl-4-hydroxybenzamido)-6,8-dimethylquinoline]: the inhibition at 1 µM in test [1] worked out at 82.2%.

Take `COc1ccc(OC)c(C=CC(=O)Nc2cnc3c(C)cc(C)cc3c2-c2ccccc2Cl)c1` [Example 25, 4-(2-chlorophenyl)-3-(2,5-dimethoxycinnamoylamino)-6,8-dimethylquinoline]: the inhibition at 1 µM in test [1] is 73.7%. Regarding `Cc1cc(C)c2ncc(NC(=O)C=Cc3cc(C)c(O)c(C)c3C)c(-c3ccccc3Cl)c2c1` [Example 35, 4-(2-chlorophenyl)-3-(4-hydroxy-2,3,-trimethylcinnamoylamino)-6,8-dimethylquinoline], in test [2], the Lipoperoxide inhibition rate is 84.9% and the IC50 is 810 nM. In addition, the inhibition at 1 µM in test [1] came to 81.7%.
